Source: ChEMBL document CHEMBL5390258, “Recent Progress and Prospects of Small Molecules for NLRP3 Inflammasome Inhibition” (J Med Chem, 2023)

Experiments:
THP-1 = test: Induction of pyroptosis in PMA-differentiated human THP-1 cells at 10 uM in presence of ATP by CytoTox 96 nonradioactive assay relative to control; assay type: functional
[1] = Cytotoxicity against human THP-1 cells assessed as reduction in cell viability measured after 72 hrs by MTT assay; assay type: toxicity, cell-based; details: read-out: TC50
[2] = biological target: NACHT, LRR and PYD domains-containing protein 3 (Homo sapiens, UniProt Q96P20); test: Inhibition of NLRP3 in human PBMC cells assessed as reduction in IL-1beta production; assay type: cell-based
Sequence of NACHT, LRR and PYD domains-containing protein 3 (Q96P20 whole entry, the tested form may be a part): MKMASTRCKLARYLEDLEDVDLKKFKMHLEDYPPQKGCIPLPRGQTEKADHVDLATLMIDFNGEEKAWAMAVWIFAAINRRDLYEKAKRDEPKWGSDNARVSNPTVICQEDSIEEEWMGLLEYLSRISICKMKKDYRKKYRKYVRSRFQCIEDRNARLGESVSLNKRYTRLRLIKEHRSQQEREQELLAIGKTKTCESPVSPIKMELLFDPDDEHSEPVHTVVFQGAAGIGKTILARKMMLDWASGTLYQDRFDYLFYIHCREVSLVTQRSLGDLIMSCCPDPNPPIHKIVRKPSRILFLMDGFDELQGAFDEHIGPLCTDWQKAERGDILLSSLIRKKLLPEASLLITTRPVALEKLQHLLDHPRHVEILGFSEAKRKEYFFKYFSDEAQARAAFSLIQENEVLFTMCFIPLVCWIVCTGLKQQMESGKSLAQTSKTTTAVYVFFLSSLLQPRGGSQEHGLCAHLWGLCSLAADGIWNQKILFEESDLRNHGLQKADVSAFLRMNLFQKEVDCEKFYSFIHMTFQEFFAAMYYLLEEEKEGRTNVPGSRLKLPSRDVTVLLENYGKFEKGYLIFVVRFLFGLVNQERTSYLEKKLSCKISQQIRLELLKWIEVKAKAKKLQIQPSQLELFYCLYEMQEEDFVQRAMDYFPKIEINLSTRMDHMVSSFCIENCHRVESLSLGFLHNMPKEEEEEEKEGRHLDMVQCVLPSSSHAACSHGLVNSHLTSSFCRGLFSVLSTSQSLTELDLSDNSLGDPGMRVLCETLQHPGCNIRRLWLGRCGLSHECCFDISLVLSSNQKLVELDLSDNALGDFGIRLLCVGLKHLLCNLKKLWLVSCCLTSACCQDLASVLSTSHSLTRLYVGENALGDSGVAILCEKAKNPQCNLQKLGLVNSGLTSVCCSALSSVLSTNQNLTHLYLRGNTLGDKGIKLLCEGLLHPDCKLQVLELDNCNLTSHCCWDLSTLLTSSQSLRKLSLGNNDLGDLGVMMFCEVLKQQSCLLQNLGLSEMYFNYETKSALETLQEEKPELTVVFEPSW

Row | IC50 [2] | SMILES | Activity (THP-1) | CC50 at 72 h [1]
1 |  | C=C(Cc1ccccc1Cl)C(=O)NCCc1ccc(S(N)(=O)=O)cc1 | 80.9% | > 100 µM
2 | 5.18 µM | C=C1C(=O)[C@]23[C@H](O)[C@@H]1CC[C@H]2[C@@]12CO[C@@]3(O)[C@@H](O)[C@@H]1C(C)(C)CC[C@@H]2O |  | 
